Data taken from ChEMBL document CHEMBL4145542, “Recent progress in potential anti-hepatitis B virus agents: Structural and pharmacological perspectives” (Eur J Med Chem, 2018).

Experiments:
Hepatitis B virus [1] = test: Antiviral activity against HBV infected in human HepDES19 cells assessed as reduction in viral cccDNA level; type: functional, organism-based
Hepatitis B virus [2] = test: Antiviral activity against HBV infected in human HepG2.2.15 cells assessed as reduction in viral DNA level after 8 days by dot-blot hybridization assay; type: functional, organism-based; conditions: HepG2.2.15, 192 h

Q: With `Cc1nc2cc(NC(=O)c3ccc(S(=O)(=O)N(C)Cc4ccccc4)cc3)ccc2s1` as the compound, how does the EC50 (Hepatitis B virus [1]) read?
A: 3 µM

Q: With `COC(=O)C1=C(C)NC(c2ncc(F)cc2F)=N[C@H]1c1ccc(F)cc1Cl` as the compound, how does the IC50 (Hepatitis B virus [2]) read?
A: 0.053 µM

Q: `O=C(CN(c1cc(C(F)(F)F)ccc1Cl)S(=O)(=O)c1ccccc1)NCc1ccncc1` was tested. Which EC50 (Hepatitis B virus [1]) did it give?
A: 10 µM
